CC1(N=C(O)c2ccccc2)CCC2CC1C(c1ccccc1)=[NH+]C2(C)C.[O-][Cl+3]([O-])([O-])[O-] (stereo not given)
solubility (mole fraction)
Conditions | 298.15 K | 303.15 K | 308.15 K | 313.15 K | 318.15 K
in 2-ethoxyethanol | 0.00256 | 0.00297 | 0.00348 | 0.0041 | 0.0048
in acetone | 0.00275 | 0.00308 | 0.00363 | 0.00425 | 0.00495
in acetonitrile | 0.00307 | 0.0035 | 0.00421 | 0.00488 | 0.00572
in acrylonitrile | 0.00592 | 0.00661 | 0.00743 | 0.00856 | 0.0104
in ethanol | 0.0015 | 0.00182 | 0.00223 | 0.00264 | 0.00316
in isopropanol | 0.000845 | 0.00103 | 0.00132 | 0.00163 | 0.00199
in methanol | 0.00289 | 0.00327 | 0.0038 | 0.00445 | 0.00534
in n-butanol | 0.000928 | 0.00113 | 0.00146 | 0.00178 | 0.00221
in n-propanol | 0.0013 | 0.0016 | 0.00193 | 0.00232 | 0.00288
in propionitrile | 0.00186 | 0.00215 | 0.00254 | 0.00305 | 0.00346
in propylene glycol | 0.0122 | 0.0132 | 0.0147 | 0.0164 | 0.0187
in water | 3.8e-05 | 5.7e-05 | 7.7e-05 | 9.9e-05 | 0.000115

CC(=O)NC1(C)CCC2CC1C(C)=NC2(C)C (stereo not given)
solubility (mole fraction)
Conditions | 298.15 K | 303.15 K | 308.15 K | 313.15 K | 318.15 K
in 2-ethoxyethanol | 0.00185 | 0.00217 | 0.00248 | 0.00282 | 0.00322
in acetone | 0.00359 | 0.00388 | 0.00411 | 0.00445 | 0.00493
in acetonitrile | 0.0257 | 0.0265 | 0.0275 | 0.0292 | 0.0305
in acrylonitrile | 0.00442 | 0.00458 | 0.00487 | 0.00528 | 0.00581
in ethanol | 0.00153 | 0.00184 | 0.00211 | 0.00244 | 0.00284
in isopropanol | 0.00134 | 0.00155 | 0.00182 | 0.00214 | 0.00243
in methanol | 0.00945 | 0.0103 | 0.0111 | 0.0122 | 0.0142
in n-butanol | 0.00138 | 0.00164 | 0.00191 | 0.00219 | 0.00257
in n-propanol | 0.00144 | 0.00171 | 0.00196 | 0.00228 | 0.00264
in propionitrile | 0.00392 | 0.00416 | 0.0044 | 0.00477 | 0.00526
in propylene glycol | 0.0197 | 0.0206 | 0.022 | 0.0232 | 0.0251
in water | 0.0012 | 0.00142 | 0.0016 | 0.00182 | 0.0021
